PubChem BioAssay (NCI)
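Step 1: Grow cells in 96-well plates. Step 2: Expose to compound for 48 hours at 5 concentrations. Step 3: Interpolate endpoints linearly; if unreached, use highest concentration. At the GI50, growth is halved. TGI marks complete inhibition of growth.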

Assays:
Assay in all cases: inhibition of tumour cell growth, NCI panel, 48 h
786-0 renal = test system: 786-0 renal
MDA-MB-231 breast = test system: MDA-MB-231 breast
NCI-H226 lung = test system: NCI-H226 lung
NCI-H23 lung = test system: NCI-H23 lung
RPMI-8226 leukemia = test system: RPMI-8226 leukemia
SF-268 CNS = test system: SF-268 CNS
SF-295 CNS = test system: SF-295 CNS
SR leukemia = test system: SR leukemia
UACC-257 melanoma = test system: UACC-257 melanoma
UACC-62 melanoma = test system: UACC-62 melanoma

SMILES: Cn1cc(-c2csc(-c3ccc(Cl)cc3)n2)c2cccnc21
- GI50 (786-0 renal): 16.3 µM
- TGI (786-0 renal): 32.4 µM
- GI50 (MDA-MB-231 breast): 13.3 µM
- TGI (MDA-MB-231 breast): 33.3 µM
- GI50 (NCI-H226 lung): 14.8 µM
- TGI (NCI-H226 lung): 43.6 µM
- GI50 (NCI-H23 lung): 13.7 µM
- TGI (NCI-H23 lung): 31 µM
- GI50 (RPMI-8226 leukemia): 12.3 µM
- TGI (RPMI-8226 leukemia): 78.6 µM
- GI50 (SF-268 CNS): 15.4 µM
- TGI (SF-268 CNS): 34 µM
- GI50 (SF-295 CNS): 15.5 µM
- TGI (SF-295 CNS): 34.4 µM
- GI50 (SR leukemia): 13.3 µM
- TGI (SR leukemia): 59.6 µM
- GI50 (UACC-257 melanoma): 19.9 µM
- TGI (UACC-257 melanoma): 43.5 µM
- GI50 (UACC-62 melanoma): 10.5 µM
- TGI (UACC-62 melanoma): 29.8 µM

SMILES: CC(=O)/C(=N\N=C(N)N)c1ccccc1
- TGI (786-0 renal): > 100 µM
- TGI (MDA-MB-231 breast): > 100 µM
- TGI (NCI-H226 lung): > 100 µM
- TGI (NCI-H23 lung): > 100 µM
- TGI (RPMI-8226 leukemia): > 100 µM
- TGI (SF-268 CNS): > 100 µM
- TGI (SF-295 CNS): > 100 µM
- TGI (SR leukemia): > 100 µM
- TGI (UACC-257 melanoma): > 100 µM
- TGI (UACC-62 melanoma): > 100 µM

SMILES: COc1cc(N)c(Cl)cc1C(=O)N[C@@H]1CCN(CCCOc2ccc(F)cc2)C[C@@H]1OC
- GI50 (786-0 renal): 55.5 µM
- TGI (786-0 renal): > 100 µM
- GI50 (MDA-MB-231 breast): 60.2 µM
- TGI (MDA-MB-231 breast): > 100 µM
- GI50 (NCI-H226 lung): > 100 µM
- TGI (NCI-H226 lung): > 100 µM
- GI50 (NCI-H23 lung): > 100 µM
- TGI (NCI-H23 lung): > 100 µM
- GI50 (SF-268 CNS): > 100 µM
- TGI (SF-268 CNS): > 100 µM
- GI50 (SF-295 CNS): 50.3 µM
- TGI (SF-295 CNS): > 100 µM
- GI50 (SR leukemia): 13.6 µM
- TGI (SR leukemia): 50.4 µM
- GI50 (UACC-62 melanoma): 67.6 µM
- TGI (UACC-62 melanoma): > 100 µM

SMILES: S=C(Nc1ccc(-c2nc3ccccc3s2)cc1)Nc1ccc(-c2nc3ccccc3s2)cc1
- GI50 (786-0 renal): 28 µM
- TGI (786-0 renal): 83.2 µM
- GI50 (MDA-MB-231 breast): 13.7 µM
- TGI (MDA-MB-231 breast): 35 µM
- GI50 (NCI-H226 lung): 14 µM
- TGI (NCI-H226 lung): 38.8 µM
- GI50 (NCI-H23 lung): 21.1 µM
- TGI (NCI-H23 lung): 44.9 µM
- GI50 (RPMI-8226 leukemia): 34.6 µM
- TGI (RPMI-8226 leukemia): > 100 µM
- GI50 (SF-268 CNS): 23.6 µM
- TGI (SF-268 CNS): 94.8 µM
- GI50 (SF-295 CNS): 17.6 µM
- TGI (SF-295 CNS): > 100 µM
- GI50 (SR leukemia): 21 µM
- TGI (SR leukemia): 49.5 µM
- GI50 (UACC-257 melanoma): 24.5 µM
- TGI (UACC-257 melanoma): 48 µM
- GI50 (UACC-62 melanoma): 15.7 µM
- TGI (UACC-62 melanoma): 32 µM

SMILES: COc1ccc(N=c2nc3sc4cc(Cl)ccc4n3c(N)c2C#N)cc1
- GI50 (786-0 renal): 2.43 µM
- TGI (786-0 renal): 5.47 µM
- GI50 (MDA-MB-231 breast): 3.12 µM
- TGI (MDA-MB-231 breast): 16.2 µM
- GI50 (NCI-H226 lung): 1.92 µM
- TGI (NCI-H226 lung): 7.99 µM
- GI50 (NCI-H23 lung): 2.49 µM
- TGI (NCI-H23 lung): 20.5 µM
- GI50 (RPMI-8226 leukemia): 25 µM
- TGI (RPMI-8226 leukemia): > 72.6 µM
- GI50 (SF-268 CNS): 4.29 µM
- TGI (SF-268 CNS): > 100 µM
- GI50 (SF-295 CNS): 2.51 µM
- TGI (SF-295 CNS): 23.1 µM
- GI50 (SR leukemia): 8.49 µM
- TGI (SR leukemia): > 84.8 µM
- GI50 (UACC-257 melanoma): 35.4 µM
- TGI (UACC-257 melanoma): > 100 µM
- GI50 (UACC-62 melanoma): 3.35 µM
- TGI (UACC-62 melanoma): > 38.5 µM

SMILES: CCN(CC)c1ccc(/C=N/N=C(N)N)cc1
- GI50 (786-0 renal): 6.2 µM
- TGI (786-0 renal): 20.7 µM
- GI50 (MDA-MB-231 breast): 10.9 µM
- TGI (MDA-MB-231 breast): 32.6 µM
- GI50 (NCI-H226 lung): 3.84 µM
- TGI (NCI-H226 lung): 22.8 µM
- GI50 (NCI-H23 lung): 4.59 µM
- TGI (NCI-H23 lung): 50.6 µM
- GI50 (RPMI-8226 leukemia): 2.84 µM
- TGI (RPMI-8226 leukemia): 13.3 µM
- GI50 (SF-268 CNS): 5.43 µM
- TGI (SF-268 CNS): 82.5 µM
- GI50 (SF-295 CNS): 3.59 µM
- TGI (SF-295 CNS): 15.8 µM
- GI50 (SR leukemia): 2.03 µM
- TGI (SR leukemia): 15 µM
- GI50 (UACC-257 melanoma): 5.2 µM
- TGI (UACC-257 melanoma): 23.9 µM
- GI50 (UACC-62 melanoma): 4.23 µM
- TGI (UACC-62 melanoma): 18.1 µM

SMILES: NC(=S)c1cccc(C2Nc3ccccc3O2)c1 (stereo not given)
- TGI (786-0 renal): > 100 µM
- TGI (MDA-MB-231 breast): > 100 µM
- TGI (NCI-H226 lung): > 100 µM
- TGI (NCI-H23 lung): > 100 µM
- TGI (SF-268 CNS): > 100 µM
- TGI (SF-295 CNS): > 100 µM
- TGI (SR leukemia): > 100 µM
- TGI (UACC-257 melanoma): > 100 µM
- TGI (UACC-62 melanoma): 96.2 µM
